# Test results published in PubChem BioAssay AID2060511 (Molecular Pharmacology Branch, DTP, NCI, 2025).
# Test system: 422866-222-R5-J1-PDC spheroids with HUVEC/MSC, viability
# Experiment: Anticancer human tumor 422866-222-R5-J1-PDC patient-derived pancreatic adenocarcinoma cell line growth inhibition [GQUAD]
# Conditions: for IC50: curve of first compound; for viability, T/C: stronger effect = lower value
# From the text: DNA G-quadruplex Stabilizer Agents in Combinations in Complex Spheroids
# A high-throughput screen of multi-cell type tumor spheroids was designed to identify active combinations of DNA G-quadruplex stabilizer agents and targeted small molecules. Complex spheroids include a stromal component modeled by human endothelial cells (HUVEC) and fibroblasts modeled by human mesenchymal stem cells (MSCs). The concentration ranges selected for each drug and investigational agent were based upon clinically achievable concentrations if the clinical Cmax of the agent was known.
# Compounds. The drugs and investigational agents: pidnarulex (CX-5461; NSC782164), APTO-253 (NSC789042), BRACO-19 (NSC847499), peposertib (NSC802822), ceralasertib (NSC780249), elimusertib (NSC800525), camonsertib (NSC841442), AZD-1390 (NSC803789), olaparib (NSC753686), talazoparib (NSC767125), ART-558 (NSC835418), sotorasib (NSC818433), MRTX-1133 (NSC836407), SN-38 (NSC673596), topotecan (NSC609699), etoposide (NSC141540), doxorubicin (NSC123127), gemcitabine (NSC613327), 5-fluorouracil (NSC19893), paclitaxel (NSC125973), vemurafenib (NSC761431), panobinostat (NSC761190), R-306465 (JNJ-16241199; NSC773264), adavosertib (NSC754352), TP-3654 (NSC805149), carboplatin (NSC241240), KSQ-4279 (NSC840948), and staurosporine (NSC755774) were obtained from the National Cancer Institute (NCI) Developmental Therapeutics Program Chemical Repository (34). The FDA-approved anticancer drug set is available from the NCI Developmental Therapeutics Program. […] The stock solutions were prepared in dimethyl sulfoxide (DMSO, Sigma-Aldrich, St. Louis, MO, cat. D2650) at 800-fold the tested concentration and stored at -70 degrees C prior to their use. All drugs and investigational agents were tested over a range starting from a high concentration at or near the clinical Cmax and decreasing in half-log increments. If the clinical Cmax for an agent had not been determined, the highest concentration tested was 10 microM.
# 2.3 Cell Culture. All cells were maintained in an incubator at 37 degrees C and 5% CO2 with 95% humidity. The PDC lines were cultured according to standard operating procedures established by the NCI PDMR. All PDCs were thawed and cultured in Matrigel-coated flasks prepared with a working solution of 1X Ham's F-12 nutrient mix, without supplementation (Invitrogen, cat. 11765054), 100 U/mL penicillin-streptomycin (Invitrogen, cat. 15140122), and 2.5% Matrigel (Corning Inc., cat. 354248) for the first three passages. The 857933-349-R-J2-PDC line was cultured in 6C/Colon 1B media, which includes advanced DMEM/F-12 (Thermo Fisher Scientific, cat. 12634028), 10 mM HEPES (Thermo Fisher Scientific, cat. 15630080), 1X GlutaMAX supplement (Thermo Fisher Scientific, cat. 35050061), 0.1 mg/mL primocin (InvivoGen, cat. ant-pm-2), 10% defined fetal bovine serum, heat inactivated (HyClone Laboratories Inc., cat. SH30070.03HI), 50% L-WRN conditioned media (ATCC, cat. CRL-3276), 1.25 mM N-Acetyl-L-cysteine (Sigma-Aldrich, cat. A9165), 10 mM nicotinamide (Sigma-Aldrich, cat. N0636), 1X B-27 supplement (Thermo Fisher Scientific, cat. 17504044), 1X N-2 supplement (Thermo Fisher Scientific, cat. 17502048), 10 microM Y-27632 dihydrochloride (Tocris Bioscience, cat. 1254), and 50 ng/mL human EGF recombinant protein (Thermo Fisher Scientific, cat. PHG0311). The 485176-168-R4-J1-PDC line was cultured in Panc media, which includes all 6C/Colon 1B media components plus 100 ng/mL human FGF-10 (Thermo Fisher Scientific, cat. 100-26), 500 nM SB-431542 (Selleckchem, cat. S1067), and gastrin (Tocris, cat. 3006).
# […]
# 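Further: spheroids exposed to compounds for seven days before reading.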
# 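Wherever viability, T/C is given: percent viability relative to DMSO vehicle control taken as 100%.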
compound,measurement,setting,value
Cc1cccc(N(C)C(=O)C2C(O)CCN2c2nc(C)cc(C(F)(F)F)c2C#N)c1 (configuration not stated) + CN(C)c1ccc(Nc2c3ccc(NC(=O)CCN4CCCC4)cc3nc3cc(NC(=O)CCN4CCCC4)ccc23)cc1,IC50,second compound 0.0316 µM,> 10 µM
same,IC50,second compound 0.1 µM,> 10 µM
same,IC50,second compound 0.316 µM,> 10 µM
same,IC50,second compound 1 µM,> 10 µM
same,IC50,second compound 3.16 µM,> 10 µM
same,IC50,second compound 10 µM,> 10 µM
same,"viability, T/C","second compound 0.0316 µM, first compound 0.0316 µM",119%
same,"viability, T/C","second compound 0.0316 µM, first compound 0.1 µM",98.6%
same,"viability, T/C","second compound 0.0316 µM, first compound 0.316 µM",104%
same,"viability, T/C","second compound 0.0316 µM, first compound 1 µM",88.3%
same,"viability, T/C","second compound 0.0316 µM, first compound 3.16 µM",96.6%
same,"viability, T/C","second compound 0.0316 µM, first compound 10 µM",107%
same,"viability, T/C","second compound 0.1 µM, first compound 0.0316 µM",92.1%
same,"viability, T/C","second compound 0.1 µM, first compound 0.1 µM",81%
same,"viability, T/C","second compound 0.1 µM, first compound 0.316 µM",105%
same,"viability, T/C","second compound 0.1 µM, first compound 1 µM",80.1%
same,"viability, T/C","second compound 0.1 µM, first compound 3.16 µM",102%
same,"viability, T/C","second compound 0.1 µM, first compound 10 µM",99.5%
same,"viability, T/C","second compound 0.316 µM, first compound 0.0316 µM",97.8%
same,"viability, T/C","second compound 0.316 µM, first compound 0.1 µM",69.4%
same,"viability, T/C","second compound 0.316 µM, first compound 0.316 µM",80.6%
same,"viability, T/C","second compound 0.316 µM, first compound 1 µM",86.2%
same,"viability, T/C","second compound 0.316 µM, first compound 3.16 µM",103%
same,"viability, T/C","second compound 0.316 µM, first compound 10 µM",111%
same,"viability, T/C","second compound 1 µM, first compound 0.0316 µM",84.4%
same,"viability, T/C","second compound 1 µM, first compound 0.1 µM",86.1%
same,"viability, T/C","second compound 1 µM, first compound 0.316 µM",80.7%
same,"viability, T/C","second compound 1 µM, first compound 1 µM",91.7%
same,"viability, T/C","second compound 1 µM, first compound 3.16 µM",101%
same,"viability, T/C","second compound 1 µM, first compound 10 µM",93.2%
same,"viability, T/C","second compound 3.16 µM, first compound 0.0316 µM",77.9%
same,"viability, T/C","second compound 3.16 µM, first compound 0.1 µM",70.4%
same,"viability, T/C","second compound 3.16 µM, first compound 0.316 µM",79.7%
same,"viability, T/C","second compound 3.16 µM, first compound 1 µM",85.6%
same,"viability, T/C","second compound 3.16 µM, first compound 3.16 µM",88.8%
same,"viability, T/C","second compound 3.16 µM, first compound 10 µM",93.6%
same,"viability, T/C","second compound 10 µM, first compound 0.0316 µM",72.6%
same,"viability, T/C","second compound 10 µM, first compound 0.1 µM",90.5%
same,"viability, T/C","second compound 10 µM, first compound 0.316 µM",98.3%
same,"viability, T/C","second compound 10 µM, first compound 1 µM",82.4%
same,"viability, T/C","second compound 10 µM, first compound 3.16 µM",82.4%
same,"viability, T/C","second compound 10 µM, first compound 10 µM",85%
